In ChEMBL document CHEMBL3751822, “C1C2-linker substituted 1,5-naphthyridine analogues of oxabicyclooctane-linked NBTIs as broad-spectrum antibacterial agents (part 7)” (Medchemcomm, 2015):

Columns and labels:
Assay type in all cases: functional
Staphylococcus aureus [1] = experiment: Antibacterial activity against quinolone-sensitive Staphylococcus aureus MS5935 by micro-broth dilution method
Staphylococcus aureus [2] = experiment: Antibacterial activity against quinolone-resistant Staphylococcus aureus MS5935 by micro-broth dilution method
Staphylococcus aureus [3] = experiment: Ratio of MIC for quinolone-resistant Staphylococcus aureus MS5935 to MIC for quinolone-sensitive Staphylococcus aureus MS5935

With C[C@H]1COc2c(N3CCN(C)CC3)c(F)cc3c(=O)c(C(=O)O)cn1c23.C[C@H]1COc2c(N3CCN(C)CC3)c(F)cc3c(=O)c(C(=O)O)cn1c23.O [LEVOFLOXACIN] as the compound, how does the MIC (Staphylococcus aureus [1]) read?
The MIC was 0.26 µg/mL.

And the MIC (Staphylococcus aureus [2])?
The MIC was > 16 µg/mL.

What about the Ratio (Staphylococcus aureus [3]) of the same compound?
The Ratio was >64.
